Experimental findings from paper PMC5062114, “Dual-targeting anti-angiogenic cyclic peptides as potential drug leads for cancer therapy” (Scientific Reports, 2016) are described below.

Read-outs that look alike come from different tables or passages of the source. Bridge positions count the residues as written; N and C are the ends. Square brackets hold non-standard residues; d marks the D form. Ends that are not written are not given here. Peptide text beside a SMILES is read from it. A value given as a limit tells only on which side of the number the result lay.

One series relates to HT-29. Briefly: cells. The protocol: (§1) HUVECs (human umbilical vein endothelial cells) were cultured in EGM™-2 BulletKit™ supplemented with SingleQuots™ (supplements: growth factors, cytokines, antibiotics; Lonza) and 10% FBS (catalog no. FFBS-500; Scientifix). Both HT-29 and MCF-7 cells were cultured in 10% FBS/DMEM (Dulbecco’s Modified Eagle Medium) with 1% penicillin–streptomycin (5000 U/mL; Life Technologies), whereas PC3 cells (prostate cancer cells) were cultured in 10% FBS/RPMI (Roswell Park Memorial Institute) 1640 with 1% penicillin–streptomycin (5000 U/mL; Life Technologies). All cells were maintained at 37 °C in 5% CO2.
(§2) Cell cytotoxicity and proliferation assays were performed using similar methods to those described by Chan et al.[45]. All cells were maintained using the media conditions described above, and passages two to ten were used for all cell lines. For all cell lines, 5.0 × 10^3 cells/well (100 μL) and 1.5 × 10^3 cells/well (100 μL) were used for cell cytotoxicity and cell proliferation assays, respectively. All peptides (10 μL, at final concentrations ranging from 0.05–100 μM) and drugs, which included cilengitide, octreotide and sunitinib (at final concentrations ranging from 0.00001–100 μM), were used in both assays. Triton X-100 (0.1% (v/v); 10 μL) was used as a positive control. Cells were treated with fresh media the day after plating, before the addition of peptides, followed by a subsequent 2-h and 48-h incubation for cell cytotoxicity and cell proliferation, respectively. After different incubation periods, 3-(4, 5-dimethylthiazolyl-2)-2,5-diphenyltetrazolium bromide (MTT) (10 μL; 5 mg/mL in PBS) was added, and cells were incubated for a further 4 h. The supernatant was then removed and 100 μL DMSO added to solubilize formazan salts. Experiments were performed in triplicate. Cell numbers were recorded at 600 nm. All data represent average mean ± SD.

A further series concerns HUVEC. Briefly: cells. The procedure: as §1, §2
In the next series the test system is MCF-7. As to the kind of experiment: cells. The protocol:
as §1, §2

In another series the test system is PC3. Briefly: cells. The procedure: as §1, §2
Series [1] is described as follows: Peptide stability assay in human serum. The note with it: for stability in human serum over 24 h: RP-HPLC peak height at 215 nm. The procedure:
Figure 6 Chorionallantoic membrane and stability assays. (A) Comparison of blood vessel count of the linear and grafted peptides. Error bars indicate ± SD (n ≥ 6). […] A one-way ANOVA with Dunnett’s post-test using a multiple comparison test was used for statistical analysis. […] All peptides were compared to 0.3 nM VEGF (highlighted in grey), which is represented as 100% blood vessel growth. […] VEGF was used as the positive control, and octreotide and cilengitide as the negative controls. All images were taken with an original magnification of x16 on an Olympus SZX12 dissecting microscope with a light box. DP capture and DP manager software packages were used during image acquisition. (C) This graph illustrates the percentage of peptide remaining over 24 h in the serum stability assay. […] All data are represented as mean ± SD and were recorded in triplicate. Peptides labeled with an asterisk (*) were tested using the same method except with an additional step – dissolving the centrifuged pellet with 8 M guanidinium chloride before RP-HPLC analysis.
The overall procedures used to assess peptide stability are based on those described previously by Chan et al.[18] and Ji et al.[19]. A peptide concentration of 300 μM was used, and time points taken at 0, 2, 4, 8, 16, and 24 h. The stability of sunitinib was also examined using this method, except an additional step was added after the final centrifugation step, whereby the pellet was dissolved in 8 M guanidine hydrochloride (300 μL) prior to analysis with RP-HPLC; this additional step was adapted from Ji et al.[19]. Supernantants were analyzed on an Agilent RP-HPLC using a linear 1%/min gradient of 0–50% solvent B with a 0.3 mL/min Phenomenex column. Peak height was used for integration of data at 215 nm and each experiment was performed in triplicate.

The mark [2] stands for this setting: read-out: IC50 ± S.D., 48 hours, HT-29, cell proliferation inhibition, MTT, 48-h incubation, 1.5 × 10^3 cells/well, triplicate, mean ± SD.
[3] abbreviates: read-out: IC50 ± S.D., 48 hours, HUVEC, cell proliferation inhibition, MTT, 48-h incubation, 1.5 × 10^3 cells/well, triplicate, mean ± SD.
Where [4] appears, read: read-out: IC50 ± S.D., 48 hours, MCF-7, cell proliferation inhibition, MTT, 48-h incubation, 1.5 × 10^3 cells/well, triplicate, mean ± SD.
Setting [5] is: read-out: IC50 ± S.D., 48 hours, PC3, cell proliferation inhibition, MTT, 48-h incubation, 1.5 × 10^3 cells/well, triplicate, mean ± SD.
[6] abbreviates: human serum, 300 μM, 24 h, triplicate.

As usually defined, the IC50 is the concentration needed to halve the response being measured. Broadly, the fraction remaining is what is left of the initial amount, in per cent. Regarding `CC[C@H](C)[C@@H]1NC(=O)[C@@H]2CSSC[C@@H]3NC(=O)CNC(=O)[C@H](Cc4ccccc4)NC(=O)[C@@H]4CCCN4C(=O)[C@H](CCC(N)=O)NC(=O)[C@H](CC(N)=O)NC(=O)[C@H](CC(C)C)NC(=O)[C@H](Cc4c[nH]cn4)NC(=O)[C@H](Cc4ccc(O)cc4)NC(=O)CNC(=O)[C@@H]4CSSC[C@H](NC(=O)[C@H](CC(=O)O)NC(=O)[C@H](CO)NC(=O)[C@H](CC(=O)O)NC(=O)[C@H](CCCNC(=N)N)NC(=O)[C@H](CCCNC(=N)N)NC(=O)[C@H](CSSC[C@H](NC1=O)C(=O)N[C@@H](CCCNC(=N)N)C(=O)N[C@@H](Cc1ccc(O)cc1)C(=O)N[C@H](Cc1c[nH]c5ccccc15)C(=O)N[C@@H](CCCCN)C(=O)N[C@@H](C(C)C)C(=O)N4)NC(=O)[C@H](CCCCN)NC(=O)[C@H](CCCCN)NC(=O)[C@H](CC(C)C)NC(=O)[C@H]([C@@H](C)CC)NC(=O)[C@H](CCCCN)NC(=O)[C@@H]1CCCN1C3=O)C(=O)N1CCC[C@H]1C(=O)NCC(=O)N[C@@H](C)C(=O)N2` [MCoAA-02] (cyclo(ACICRY[dW]KVCGYHLNQPFGCPKILKKCRRDSDCPG); disulfide 2-20, 4-27, 10-33), the IC50 with HT-29 (setting [2]) was 19.75 ± 0.07 µM; in the series with HUVEC (setting [3]) it was 27.06 ± 0.06 µM; in the series with MCF-7 (setting [4]) it was greater than 100 µM; with PC3 (setting [5]), 35.44 ± 0.13 µM. Also, the “stability in human serum over 24 h” value in series [1] (setting [6]) was “stable”. The “percentage remaining in human serum at 24 h, excess over sunitinib” value in series [1] (human serum, 300 μM, 24 h, pellet dissolved in 8 M guanidine hydrochloride, RP-HPLC 215 nm, triplicate) is “approximately 20%”. The same compound registered an amount remaining at 24 h, 300 μM in series [1] (human, serum) greater than 75%.
Regarding `CC[C@H](C)[C@@H]1NC(=O)[C@@H]2CCCN2C(=O)[C@@H]2CCCN2C(=O)[C@H]([C@@H](C)CC)NC(=O)[C@H](CO)NC(=O)[C@H](CCCCN)NC(=O)[C@H]([C@@H](C)O)NC(=O)[C@@H]2CSSC[C@H](NC1=O)C(=O)N[C@@H](CCCNC(=N)N)C(=O)N[C@@H](Cc1ccccc1)C(=O)N[C@H](Cc1c[nH]c3ccccc13)C(=O)N[C@@H](CCCCN)C(=O)N[C@@H]([C@@H](C)O)C(=O)N[C@@H](Cc1c[nH]c3ccccc13)C(=O)N2` [SFTI-SST-02] (cyclo(CRF[dW]KTWCTKSIPPI); disulfide 1-8), the concentration for half-maximal inhibition (IC50) in the series on HT-29 (setting [2]) was 43.29 ± 0.04 µM; in the series on HUVEC (setting [3]), greater than 100 µM; with MCF-7 (setting [4]) it was 55.13 ± 0.07 µM; in the series with PC3 (setting [5]), greater than 100 µM.
In the case of `CC[C@H](C)[C@@H]1NC(=O)[C@H](CCCNC(=N)N)NC(=O)[C@H](CCCNC(=N)N)NC(=O)[C@H](CCCNC(=N)N)NC(=O)[C@H](CCCCN)NC(=O)[C@H](CCCNC(=N)N)NC(=O)[C@H](CCCNC(=N)N)NC(=O)[C@@H]2CSSC[C@H](NC1=O)C(=O)N[C@@H](Cc1ccccc1)C(=O)N1CCC[C@H]1C(=O)N[C@@H](CC(=O)O)C(=O)NCC(=O)N[C@@H](CCCNC(=N)N)C(=O)N2` [SFTI-polyR-L1] (cyclo(CFPDGRCRRKRRRI); disulfide 1-7), the concentration for half-maximal inhibition (IC50) is 82.27 ± 0.13 µM with HT-29 (setting [2]), greater than 100 µM in the series with HUVEC (setting [3]), 28.72 ± 0.15 µM in the series with MCF-7 (setting [4]) and greater than 100 µM with PC3 (setting [5]).
Consider `CC[C@H](C)[C@@H]1NC(=O)[C@@H]2CCCN2C(=O)[C@@H]2CCCN2C(=O)[C@H]([C@@H](C)CC)NC(=O)[C@H](CO)NC(=O)[C@H](CCCCN)NC(=O)[C@H]([C@@H](C)O)NC(=O)[C@@H]2CSSC[C@H](NC1=O)C(=O)N[C@@H](CCCNC(=N)N)C(=O)N[C@@H](CCCNC(=N)N)C(=O)N[C@@H](CCCCN)C(=O)N[C@@H](CCCNC(=N)N)C(=O)N[C@@H](CCCNC(=N)N)C(=O)N[C@@H](CCCNC(=N)N)C(=O)N2` [SFTI-polyR-L2] (cyclo(CRRKRRRCTKSIPPI); disulfide 1-8), for which the half-maximal inhibitory concentration (IC50) in the series on HT-29 (setting [2]) was greater than 100 µM; with HUVEC (setting [3]) it was greater than 100 µM; in the series with MCF-7 (setting [4]), 41.84 ± 0.07 µM; in the series on PC3 (setting [5]) it was greater than 100 µM.
`CC(C)[C@H](NC(=O)[C@H](CCCCN)NC(=O)[C@@H](Cc1c[nH]c2ccccc12)NC(=O)[C@@H](N)Cc1ccc(O)cc1)C(=O)O` [SST-01, reference compound] (H-Y[dW]KV-OH; N-terminus assumed): the half-maximal inhibitory concentration (IC50) with HT-29 (4 h) was greater than 100 µM; in the series on HUVEC (4 h), 57.54 ± 0.04 µM; in the series with MCF-7 (4 h), greater than 100 µM; in the series on PC3 (4 h), greater than 100 µM. Besides, in series [1] (setting [6]), the “stability in human serum over 24 h” value is “more stable than PEDF”.
Consider `C[C@@H](O)[C@H](NC(=O)[C@H](CCCCN)NC(=O)[C@@H](Cc1c[nH]c2ccccc12)NC(=O)[C@H](Cc1ccccc1)NC(=O)[C@@H](N)CCCNC(=N)N)C(=O)N[C@@H](Cc1c[nH]c2ccccc12)C(=O)O` [SST-02, reference compound] (H-RF[dW]KTW-OH), for which the IC50 in the series with HT-29 (4 h), in the series on HUVEC (4 h), with MCF-7 (4 h) and with PC3 (4 h) was greater than 100 µM throughout.
Consider YHLNQPF [PEDF, reference compound], for which the concentration for half-maximal inhibition (IC50) in the series with HT-29 (setting [2]) was greater than 100 µM; in the series with HUVEC (setting [3]), 19.4 ± 0.08 µM; in the series with MCF-7 (setting [4]), greater than 100 µM; in the series with PC3 (setting [5]), greater than 100 µM.
